Activity calls are given as the source filed them. The rule behind the calls is not given here.
Legend:
T-cell = test: Immunoregulatory activity assessed as inhibition of T cell proliferation at 0.1 uM; format: functional, cell-based
B-cell = test: Immunoregulatory activity assessed as stimulation of B cell proliferation at 10 uM; format: functional, cell-based
[1] = Cytotoxicity against T cell; format: cell-based

SMILES: CC(C)(O)[C@H]1C[C@H](O[C@@H]2O[C@H](CO)[C@@H](O)[C@H](O)[C@H]2O)[C@@]2(C)[C@@H]3CC[C@]2(C)C(=O)[C@@H]31 [DENDROMONILISIDE A]
- Activity (T-cell): Active
- Activity (B-cell): Active
- Activity [1]: Non-toxic

SMILES: CC(C)[C@H]1[C@@H]2OC(=O)[C@H]1[C@H]1C[C@H](O[C@@H]3O[C@H](CO)[C@@H](O)[C@H](O)[C@H]3O)[C@]3(CO3)[C@@]1(C)[C@H]2O [DENDROMONILISIDE C]
- Activity (T-cell): Active
- Activity (B-cell): Active
- Activity [1]: Non-toxic

SMILES: COc1cc(CO)ccc1O[C@@H]1O[C@H](CO)[C@@H](O)[C@H](O)[C@H]1O [VANILLOLOSIDE]
- Activity (T-cell): Active
- Activity (B-cell): Active
- Activity [1]: Non-toxic
